Columns and labels:
MRSA [1] = test: Iodonitrotetrazolium chloride assay of MRSA growth, various anthraquinones with L-Arg and UCA; assay type: cell-based, Staphylococcus aureus; conditions: FIG. 20
Procedure: Although the WT13-13 example compound described herein uses cassic acid (rhein) as the anthraquinones, other anthraquinones may be used. This is illustrated in FIG. 20, for example. In FIG. 20, antibiotic effects of other anthraquinones were tested against MRSA. As shown, identical ratios of L-Arg and UCA were combined with various anthraquinones, including cassic acid (Rhein), aloe-emodin (AloeE), and chrysophanol (Chyrs.). Formulations were tested for MRSA growth using an iodonitrotetrazolium chloride assay. Each compound was MRSA was assayed in media control and subtracted from the values taken from the wells containing MRSA to control for colorimetric alterations. Each MRSA well contained 100,000 CFUs in 100 microliters.
As shown in FIG. 20 discussed above, in addition to cassic acid, other anthraquinones were tested for activity using an iodonitrotetrazolium chloride assay. Each anthraquinone was assayed for activity against one or more pathogen. In FIG. 20 activity was tested against MRSA growth.

MRSA [2] = test: In-vitro resistance study, repeated sub-inhibitory exposures of MRSA; assay type: cell-based, Staphylococcus aureus; conditions: sub-inhibitory concentrations
Procedure: A number of standard in-vitro resistance studies were conducted to predict the onset and mechanism of resistance for an anti-pathogenic compound such as WT13-13. The standard test comprises exposing bacteria to sub-inhibitory concentrations of an antibiotic over a number of exposures and monitoring the bacterial growth. As the bacteria develop resistance to the drug, the growth rate will rise. Tests were performed by treating MRSA with sub-inhibitory concentrations of both WT13-13 and mupirocin (separately) in order to study the behavior of WT13-13 and compare with that of mupirocin. The horizontal dotted lines represent the ideal, non-resistant behavior. That is, if an antibiotic were effective and the bacteria not developing resistance to it, its growth curve would be flat and follow the dotted line. However, all antibiotics to date experience bacterial resistance and trend upwards of the dotted line, towards the MRSA-only control line (if an antibiotic reaches the control line, it is completely ineffective and the bacteria is resistant to the antibiotic). […] The shading 1201 highlights this behavior. […] The shading 1203 highlights this behavior. […] Such “anti-resistance” has not been reported in an antibiotic before.

Structure (SMILES)	inhibition of MRSA growth (MRSA [1])	development of resistance over multiple exposures (growth trend) (MRSA [2])
O=C1c2cccc(O)c2C(=O)c2c(O)cccc21 [dantron]	Inhibition of growth	–
C/C(=C\C(=O)OCCCCCCCCC(=O)O)C[C@@H]1OC[C@H](C[C@@H]2O[C@H]2[C@@H](C)[C@H](C)O)[C@@H](O)[C@H]1O [mupirocin]	–	trends upwards towards the control line
O=C(O)C(=O)O [oxcalic acid]	Inhibition of growth	–
